From patent US11225469B2, “Inhibitors of phosphoglycerate dehydrogenase (PHGDH) and uses thereof” (Whitehead Institute for Biomedical Research, priority 2015, dated 2022)

Legend:
[1] = system: panel of other dehydrogenases; experiment: Panel of other dehydrogenases; type: biochemical
[2] = target: T1, PHGDH (Homo sapiens (Human), UniProt O43175); experiment: Inhibitor kinetics: competition against substrates and dilution experiments; type: biochemical; conditions: Lineweaver-Burk
Text: (§1) Destabilization has been previously observed in the specific binding of small molecules to their protein targets (see, e.g., Hamiaux, C. et al. “DAD2 is an α/β hydrolase likely to be involved in the perception of the plant branching hormone, strigolactone.” Curr Biol 22, 2032-2036 (2012)).

[3] = system: MDA-MB-231 orthotopic xenografts; experiment: MDA-MB-231 orthotopic xenografts; type: in vivo, mouse; conditions: 40 mg/kg daily, IP
Experimental: (§2) Female NOD.CB17-Prkdc^scid/J mice, 6-8 weeks old, were obtained from Jackson Laboratories. All animals were provided with food ad libitum for the duration for the duration of the experiment. The animals were allocated randomly for induction with MDA-MB-231 or MDA-MB-468 tumors and tumor group was assigned blindly. 500,000 MDA-MB-231 or MDA-MB-468 cells were injected into the 4th mammary fat pad of each mouse. After 30 days, the tumors were palpable, and the mice were pooled by tumor type and divided randomly to two groups, which were assigned blindly to vehicle or NCT-503 treatment. […] Caliper measurements were obtained twice weekly and tumor volumes were calculated with the modified ellipsoid formula: volume=0.5×width^2×length.
For quantitation of necrotic regions, fixed tumors were embedded and sections stained with hematoxylin and eosin. Slides were scanned with a Leica Aperio AT2 brightfield scanner. Tumor and necrotic cross-sectional regions were manually delineated and measured using Leica ImageScope software to calculate the percentage of necrosis.

[4] = Body weight of treated xenograft mice; type: in vivo, mouse; conditions: 24-day treatment
Experimental: as §2

[5] = system: PHGDH-independent cell lines (ZR-75-1, SK-MEL-2); experiment: Cytotoxicity (Cell Titer-Glo), other PHGDH-independent cell lines; type: cell-based, human
Experimental: Knockdown of PHGDH is selectively toxic towards PHGDH-dependent cell lines, and minimally toxic towards PHGDH-independent cell lines. […] Cell count was determined by quantitating the amount of ATP present with CellTitreGlo® measurements 96 hours after dosage.
Cells were seeded in white 96-well plates (Greiner) at a density of 2000 cells/well (MDA-MB-468, BT-20, MT-3) or 1000 cells/well (all other cell lines) and allowed to attach for 24 hours. Compounds were prepared in DMSO and dispensed using an HP D300 compound dispenser. Cell viability was assessed with Cell Titer-Glo (Promega) at four days following treatment and luminescence measured with a SpectraMax M5 Plate Reader (Molecular Devices). Luminescence was normalized to an untreated control in identical medium. For rescue experiments, RPMI was supplemented with 40 μM adenosine, uridine, guanosine, cytidine, deoxyadenosine, thymidine, deoxyguanosine, and deoxycytidine and the medium was replaced daily.

[6] = target: GAPDH (Homo sapiens (Human), UniProt P04406); experiment: Counter-screen against GAPDH; type: biochemical; conditions: Table E11
Experimental: GAPDH substrate buffer contained 210 mM Tris pH 7.4, 2.5 mM NaH2PO4 pH 7.4, 2 mM DL-Glyceraldehyde 3-phosphate, 1.75 mM MgCl2, 0.01 mM NAD+, 0.11 mM resazurin, 0.2 mg/mL BSA, and 0.01% Tween-20. GAPDH enzyme buffer contained 50 mM Tris pH 7.4, 100 mM NaCl, 0.02 mM TCEP, 0.01 mM EDTA, 0.1 mg/mL BSA, 0.42 mg/mL diaphorase, and 2.5 nM GAPDH. The GAPDH, GPD1, and GPD1L assays were run in 384-well plates using the same protocol and readout as the PHGDH assay. […] GPD1 enzyme buffer contained 50 mM Tris pH 7.4, 100 mM NaCl, 0.08 mM TCEP, 0.4 mg/mL BSA, 0.03 μM EDTA, and 0.8 nM GPD1. 70 μL of substrate buffer were mixed with 10 μL enzyme buffer. GPD1L substrate buffer contained 200 mM Tris pH 7.4, 0.05 mM sn-G3-P, 2 mM MgCl2, 0.04 mM NAD+, 0.11 mM resazurin, 0.1 mg/mL BSA, and 0.02% Tween-20. GPD1L enzyme buffer contained 50 mM Tris pH 7.4, 100 mM NaCl, 0.02 mM TCEP, 0.42 mg/mL diaphorase, 0.1 mg/mL BSA, 0.008 μM EDTA, and 16 nM GPD1L. 40 μL of substrate buffer were mixed with 40 μL of enzyme buffer.
The GAPDH and GPD1L assays were read using the same protocol as the PHGDH assay. The GPD1 assay was read using loss of NADH fluorescence (λex=340 nm and λem=460 nm).

[7] = system: panel of 168 GPCRs; experiment: Cross-reactivity in a panel of 168 GPCRs
[8] = target: T1, PHGDH; experiment: Differential scanning fluorimetry; type: binding
Experimental: as §1
Differential scanning fluorimetry assays were carried out in 20 mM TEA pH 8, 100 mM NaCl, 1× SYPRO Orange (Sigma), 2 μM PHGDH in a volume of 10 μL. Unfolding was monitored using a LightCycler 480 II real-time PCR instrument (λex=465 nm and λem=580 nm) over a linear 20 to 85° C. gradient. Plots of the first derivative of fluorescence vs. temperature were generated in LightCycler software.

T1 sequence (O43175 whole entry): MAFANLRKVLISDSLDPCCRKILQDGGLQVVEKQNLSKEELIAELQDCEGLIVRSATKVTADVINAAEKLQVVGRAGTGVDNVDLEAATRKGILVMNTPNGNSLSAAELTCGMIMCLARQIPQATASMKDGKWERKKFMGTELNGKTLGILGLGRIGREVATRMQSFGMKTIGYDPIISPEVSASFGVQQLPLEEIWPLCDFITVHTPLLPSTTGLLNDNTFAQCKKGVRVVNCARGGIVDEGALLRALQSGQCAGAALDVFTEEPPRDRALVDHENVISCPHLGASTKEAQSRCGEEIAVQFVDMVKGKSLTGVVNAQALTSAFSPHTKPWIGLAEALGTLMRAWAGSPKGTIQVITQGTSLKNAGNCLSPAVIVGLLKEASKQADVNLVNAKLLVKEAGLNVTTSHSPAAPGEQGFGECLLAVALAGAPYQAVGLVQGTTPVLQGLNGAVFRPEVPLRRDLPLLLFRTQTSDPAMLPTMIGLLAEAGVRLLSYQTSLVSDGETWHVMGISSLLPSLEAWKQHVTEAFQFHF
GAPDH, sequence (P04406 whole entry): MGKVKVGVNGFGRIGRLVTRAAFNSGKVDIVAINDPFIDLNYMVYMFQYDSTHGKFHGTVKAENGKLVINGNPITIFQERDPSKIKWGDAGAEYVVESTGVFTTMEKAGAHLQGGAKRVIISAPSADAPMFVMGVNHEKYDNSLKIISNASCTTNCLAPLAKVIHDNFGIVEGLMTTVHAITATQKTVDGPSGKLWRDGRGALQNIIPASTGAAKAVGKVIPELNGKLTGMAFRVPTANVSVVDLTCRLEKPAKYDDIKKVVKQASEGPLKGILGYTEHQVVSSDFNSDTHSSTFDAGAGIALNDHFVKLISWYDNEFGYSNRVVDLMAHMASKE

Cc1cc(C)nc(NC(=S)N2CCN(Cc3ccc(C(F)(F)F)cc3)CC2)c1 [Compound 267, N-(4,6-dimethylpyridin-2-yl)-4-(4-(trifluoromethyl)benzyl)piperazine-1-carbothioamide]
activity against a panel of other dehydrogenases [1]: inactive | type of inhibition with respect to 3-PG [2]: mixed-mode inhibition | type of inhibition with respect to NAD+ [2]: non-competitive inhibition | growth or weight of xenografts [3]: did not affect the growth or weight | body weight of mice [4]: did not lose weight | toxicity [5]: no toxicity | IC50 [6]: ≥ 100 µM | cross-reactivity, modulation of activity [7]: < 30% | Tm of PHGDH [8]: decreased
